A short description of test [1]: Cell cycle arrest in human DU145 cells assessed as accumulation at G1 phase after 24 hrs by propidium iodide staining-based flow cytometry. The note with it: DU-145. In kind it is functional. Background: In flow cytometry, cells or beads pass a laser one at a time.
In another test the test system is C6. Kind of test: Antiproliferative activity against rat C6 cells assessed as reduction in cell viability after 24 hrs by MTT assay. The test is classed as functional, cell-based. The note with it: C6, 24 h.
The target of test [2] is Sigma non-opioid intracellular receptor 1 (Rattus norvegicus, UniProt Q9R0C9). Kind of test: Displacement of [3H]-(+)-pentazocine from sigma 1 receptor in rat brain by competition binding assay. In kind it is tissue-based. On the technique in general: In a radioligand displacement assay an active substance lowers the binding of a labelled ligand.
Sigma non-opioid intracellular receptor 1 (Rattus norvegicus, UniProt Q9R0C9), sequence (Q9R0C9 whole entry): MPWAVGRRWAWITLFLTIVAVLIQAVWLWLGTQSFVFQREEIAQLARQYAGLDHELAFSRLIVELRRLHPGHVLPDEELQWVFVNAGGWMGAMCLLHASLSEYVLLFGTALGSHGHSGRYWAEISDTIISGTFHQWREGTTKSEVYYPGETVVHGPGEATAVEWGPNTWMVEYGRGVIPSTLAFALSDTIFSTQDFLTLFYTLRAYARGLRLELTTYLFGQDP
Test [3] can be described thus: Cell cycle arrest in human DU145 cells assessed as accumulation at S phase at 30 uM after 24 hrs by propidium iodide staining-based flow cytometry (reference value: 38.6 %). The test is classed as functional. The note with it: DU-145.
In test [4] the test system is MCF7. In words: Antiproliferative activity against human MCF7 cells assessed as reduction in cell viability after 24 hrs by MTT assay. The test is classed as functional, cell-based. The note with it: MCF7, 24 h. For orientation: Tetrazolium dyes change colour on reduction, which living cells bring about.
The species named for another test is Rattus norvegicus. Kind of test: Selectivity ratio of Ki for sigma 1 receptor in rat brain to Ki for sigma 2 receptor in rat liver membrane. In kind it is cell membranes.
A short description of test [5]: Cell cycle arrest in human DU145 cells assessed as accumulation at G1 phase at 30 uM after 24 hrs by propidium iodide staining-based flow cytometry (reference value: 58.2 %). In kind it is functional. The note with it: DU-145.
A short description of test [6]: Displacement of [3H]-DTG from sigma 2 receptor in rat liver membrane by competition binding assay in presence of dextrallorphan. The test is classed as cell membranes.
Test [7] is described as follows: Antiproliferative activity against human DU145 cells assessed as reduction in cell viability after 24 hrs by MTT assay. The test is classed as functional, cell-based. The note with it: DU-145, 24 h.
Test [8] can be described thus: Cell cycle arrest in human DU145 cells assessed as accumulation at S phase at 40 uM after 24 hrs by propidium iodide staining-based flow cytometry (reference value: 38.6 %). The test is classed as functional. The note with it: DU-145.
Test [9] can be described thus: Selectivity ratio of Ki for sigma 1 receptor in guinea pig brain membrane to Ki for sigma 2 receptor in rat liver membrane. In kind it is cell membranes.
The nature of test [10]: Cell cycle arrest in human DU145 cells assessed as accumulation at G1 phase at 40 uM after 24 hrs by propidium iodide staining-based flow cytometry (reference value: 58.2 %). The test is classed as functional. The note with it: DU-145.
In test [11] the test system is MCF7. In words: Antiproliferative activity against human MCF7 cells assessed as reduction in cell viability after 48 hrs by MTT assay. In kind it is functional, cell-based. The note with it: MCF7, 48 h.
A short description of test [12]: Cell cycle arrest in human DU145 cells assessed as accumulation at G1 phase at 15 to 25 uM after 24 hrs by propidium iodide staining-based flow cytometry (reference value: 58.2 %). The test is classed as functional. The note with it: DU-145.
A short description of test [13]: Displacement of [3H]-DTG from sigma 2 receptor in rat brain by competition binding assay. In kind it is tissue-based.
For test [14], the system named is MDA-MB-435. Kind of test: Induction of apoptosis in human MDA-MB-435 cells assessed as decreased cyclin B1 expression at 10 uM incubated for 24 hrs by Western blot analysis. The test is classed as functional, cell-based.
Test [15] concerns MDA-MB-435. In words: Induction of apoptosis in human MDA-MB-435 cells assessed as decreased cyclin D1 expression at 10 uM incubated for 24 hrs by Western blot analysis. The note with it: TDE = time-dependent effect. In kind it is functional, cell-based.
Test [16] deals with MDA-MB-435. In words: Induction of apoptosis in human MDA-MB-435 cells assessed as decreased phospho-Rb expression at 10 uM incubated for 24 hrs by Western blot analysis. The test is classed as functional, cell-based.
Test [17] deals with Sigma non-opioid intracellular receptor 1 (Cavia porcellus, UniProt Q60492). Kind of test: Displacement of [3H]-(+)-pentazocine from sigma-1 receptor in guinea pig brain membrane by competition binding assay. The test is classed as cell membranes.
Sigma non-opioid intracellular receptor 1 (Cavia porcellus, UniProt Q60492), sequence (Q60492 whole entry): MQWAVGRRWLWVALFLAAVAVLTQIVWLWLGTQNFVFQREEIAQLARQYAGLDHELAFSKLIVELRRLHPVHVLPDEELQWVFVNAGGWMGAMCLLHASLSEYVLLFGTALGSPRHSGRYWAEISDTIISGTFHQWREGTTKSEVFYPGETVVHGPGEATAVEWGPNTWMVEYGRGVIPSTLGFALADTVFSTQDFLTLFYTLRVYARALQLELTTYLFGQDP

Structures are written as SMILES. Calls of active or inactive are those of the source. No cut-off for these calls is given here.

Experimental findings from ChEMBL document CHEMBL3739327, “Novel indole-based sigma-2 receptor ligands: synthesis, structureaffinity relationship and antiproliferative activity” (Medchemcomm, 2015) are described below.

One may read the EC50 as the concentration giving half of the maximal effect. As a reminder, the Ki is the equilibrium dissociation constant of an inhibitor or competing ligand from its target. The IC50 is the concentration at which inhibition is half-maximal. A lower IC50 goes with greater potency in that assay.

In the case of `COc1cc2c(cc1OC)CN(CCCCc1cn(-c3ccc(F)cc3)c3ccccc13)C2`, the Activity result in test [1] was “Dose-dependent effect”; in test [3], 19.3%; in test [5] it was 80.5%. The EC50 was found to be 44100 nM with C6, 17000 nM with MCF7 [4] and 26900 nM in test [7]. Moreover, the Ki in test [2] worked out at 256 nM; in test [6] it was 53.8 nM. Moreover, in the test listed under Rattus norvegicus, the Ratio Ki is 4.8.
Regarding `N#CC1(c2ccccc2)CCN(CCCCc2cn(-c3ccc(I)cc3)c3ccccc23)CC1`, the Ki in test [2] came to 386 nM; in [6], 18.5 nM. The Ratio Ki in the test filed under Rattus norvegicus came to 20.9.
Regarding `FCCOc1ccc(N2CCN(CCCCc3cn(-c4ccc(F)cc4)c4ccccc34)CC2)cc1`, the Ki in [2] was found to be 614 nM; in [6] it was 68 nM. The Ratio Ki in the test listed under Rattus norvegicus was 9.
As to `COc1cc2c(cc1OC)CN(CCCCc1cn(-c3ccc(F)cc3)c3ccccc13)CC2`, the Activity result in [1] is “Dose-dependent effect”; in test [8], 15.9%; in test [10] it was 84.1%. The EC50 was determined as 76500 nM in the test with C6, 20900 nM in the test with MCF7 [4], 17800 nM in the test with MCF7 [11] and 28800 nM in [7]. Moreover, the results for the Ki in test [2] and in [6] were 531 nM and 49.2 nM, respectively. Also, the Ratio Ki in [9] turned out to be 260; in the test filed under Rattus norvegicus, 10.8.
Regarding `COc1cc2c(cc1OC)CN(CCCCC(=O)c1ccc(F)cc1)CC2`, the Ki was 16.6 nM in test [2] and 12.4 nM in test [6]. Besides, the Ratio Ki in the test filed under Rattus norvegicus worked out at 1.3.
Turning to `FCCn1cc(CCCCN2CCC3(CC2)OCc2ccccc23)c2ccccc21`, the inhibitory constant (Ki) in test [2] came to 246 nM; in test [6], 44 nM. In addition, in the test listed under Rattus norvegicus, the Ratio Ki worked out at 5.6.
As to `FCCOCCOCCOc1ccc(N2CCN(CCCCc3cn(-c4ccc(F)cc4)c4ccccc34)CC2)cc1`, the Ki in test [2] worked out at 2160 nM; in test [6], 1880 nM. For the same molecule, the Ratio Ki in the test filed under Rattus norvegicus stood at 1.1.
On to `FCCOCCOc1ccc(N2CCN(CCCCc3cn(-c4ccc(F)cc4)c4ccccc34)CC2)cc1`, for which the figures for the Ki in test [2] and in test [6] were 1110 nM and 458 nM, respectively. Also, the Ratio Ki in the test filed under Rattus norvegicus came to 2.4.
For `N#CC1(c2ccccc2)CCN(CCCCc2cn(-c3ccc(F)cc3)c3ccccc23)CC1` the same measures were 2.58 nM, 3.03 nM and 0.9.
Take `Fc1ccc(-n2cc(CCCCN3CCC4(CC3)OCc3ccccc34)c3ccccc32)cc1` [SIRAMESINE]: the Activity result in test [1] was “Dose-dependent effect”; in test [12], 75.7%; in the test with MDA-MB-435 [15], “tde”. Further, the EC50 in the test on C6 was 43100 nM; in the test with MCF7 [4], 23600 nM; with MCF7 [11], 12300 nM; in test [7], 13900 nM. Besides, in test [13], the IC50 turned out to be 0.12 nM. In addition, the outcome with MDA-MB-435 [14] and in the test on MDA-MB-435 [16] was Active. The Ki in [6] was found to be 3.08 nM; in test [17], 10.5 nM.
`COc1cc2c(cc1OC)CN(CCCCn1cc(CCCF)c3ccccc31)CC2`: the inhibition constant Ki in test [2] turned out to be 263 nM; in [6], 28.5 nM. For the same molecule, in the test filed under Rattus norvegicus, the Ratio Ki stood at 9.2.
For `FCCOc1cccc(N2CCN(CCCCc3cn(-c4ccc(F)cc4)c4ccccc34)CC2)c1` the same measures were 257 nM, 48.4 nM and 5.3.
Take `COc1cc2c(cc1OC)CN(CCCCn1cc(CCF)c3ccccc31)CC2`: the Ki turned out to be 493 nM in test [2] and 27.5 nM in test [6]. Besides, the Ratio Ki in the test listed under Rattus norvegicus worked out at 17.9.
With `FCCc1cn(CCCCN2CCC3(CC2)OCc2ccccc23)c2ccccc12`, the Ki was found to be 11 nM in [2] and 29.8 nM in test [6]. The Ratio Ki in the test listed under Rattus norvegicus came out at 0.4.
